Laboratory results reported in the supplement of paper PMC10307832.

What was measured:
Experiment in all cases: relative viability (nuclei count vs DMSO), 5 days (fraction); higher = more cells survive
201T = test system: 201T
Procedure, shortened: (§1)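 Relative viability was taken as the ratio of nuclei in treated wells to nuclei in vehicle wells. Lung cancer cell lines in 1536-well plates received compounds by pin tool one day after seeding, either one drug alone or a fixed anchor-drug dose plus five library-drug doses (not always all listed) in √10 steps. Nuclei were counted on 4× images after 5 days of treatment, and values are medians of duplicate plates.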

A-427 = test system: A-427
Procedure, shortened: as §1

BEN = test system: BEN
Procedure, shortened: as §1

COR-L23 = test system: COR-L23
Procedure, shortened: as §1

EKVX = test system: EKVX
Procedure, shortened: as §1

EMC-BAC-2 = test system: EMC-BAC-2
Procedure, shortened: as §1

EPLC-272H = test system: EPLC-272H
Procedure, shortened: as §1

HCC-44 = test system: HCC-44
Procedure, shortened: as §1

HCC-827 = test system: HCC-827
Procedure, shortened: as §1

LCLC-103H = test system: LCLC-103H
Procedure, shortened: as §1

LK-2 = test system: LK-2
Procedure, shortened: as §1

LXF-289 = test system: LXF-289
Procedure, shortened: as §1

NCI-H1651 = test system: NCI-H1651
Procedure, shortened: as §1

NCI-H1793 = test system: NCI-H1793
Procedure, shortened: as §1

NCI-H1915 = test system: NCI-H1915
Procedure, shortened: as §1

NCI-H2087 = test system: NCI-H2087
Procedure, shortened: as §1

NCI-H2126 = test system: NCI-H2126
Procedure, shortened: as §1

NCI-H2347 = test system: NCI-H2347
Procedure, shortened: as §1

NCI-H358 = test system: NCI-H358
Procedure, shortened: as §1

NCI-H441 = test system: NCI-H441
Procedure, shortened: as §1

NCI-H460 = test system: NCI-H460
Procedure, shortened: as §1

NCI-H596 = test system: NCI-H596
Procedure, shortened: as §1

SW 1573 = test system: SW 1573
Procedure, shortened: as §1

CCCCCCCCCCCC1=C(O)C(=O)C=C(O)C1=O [Embelin] + C[C@]1(O)C[C@@H](c2nc(-c3ccc4ccc(-c5ccccc5)nc4c3)c3c(N)nccn32)C1 [Linsitinib] (partner 1 µM)
relative viability (201T; first compound 0.08 µM): 1.06
relative viability (201T; first compound 0.8 µM): 1.1
relative viability (201T; first compound 2.53 µM): 1.09
relative viability (201T; first compound 8 µM): 1.01
relative viability (A-427; first compound 0.08 µM): 1.11
relative viability (A-427; first compound 0.8 µM): 1.12
relative viability (A-427; first compound 2.53 µM): 1.12
relative viability (A-427; first compound 8 µM): 1.09
relative viability (BEN; first compound 0.08 µM): 0.976
relative viability (BEN; first compound 0.8 µM): 1.25
relative viability (BEN; first compound 2.53 µM): 1.09
relative viability (BEN; first compound 8 µM): 0.898
relative viability (COR-L23; first compound 0.08 µM): 0.896
relative viability (COR-L23; first compound 0.8 µM): 1.08
relative viability (COR-L23; first compound 2.53 µM): 0.962
relative viability (COR-L23; first compound 8 µM): 1.05
relative viability (EKVX; first compound 0.08 µM): 0.967
relative viability (EKVX; first compound 0.8 µM): 1.09
relative viability (EKVX; first compound 2.53 µM): 1.2
relative viability (EKVX; first compound 8 µM): 1.06
relative viability (EMC-BAC-2; first compound 0.08 µM): 0.845
relative viability (EMC-BAC-2; first compound 0.8 µM): 0.862
relative viability (EMC-BAC-2; first compound 2.53 µM): 0.844
relative viability (EMC-BAC-2; first compound 8 µM): 0.842
relative viability (EPLC-272H; first compound 0.08 µM): 1.31
relative viability (EPLC-272H; first compound 0.8 µM): 1.48
relative viability (EPLC-272H; first compound 2.53 µM): 1.32
relative viability (EPLC-272H; first compound 8 µM): 1.03
relative viability (HCC-44; first compound 0.08 µM): 0.739
relative viability (HCC-44; first compound 0.8 µM): 0.654
relative viability (HCC-44; first compound 2.53 µM): 0.742
relative viability (HCC-44; first compound 8 µM): 0.642
relative viability (HCC-827; first compound 0.08 µM): 0.997
relative viability (HCC-827; first compound 0.8 µM): 0.949
relative viability (HCC-827; first compound 2.53 µM): 0.992
relative viability (HCC-827; first compound 8 µM): 1.01
relative viability (LCLC-103H; first compound 0.08 µM): 1.03
relative viability (LCLC-103H; first compound 0.8 µM): 1.11
relative viability (LCLC-103H; first compound 2.53 µM): 1.1
relative viability (LCLC-103H; first compound 8 µM): 1.03
relative viability (LK-2; first compound 0.08 µM): 0.685
relative viability (LK-2; first compound 0.8 µM): 0.525
relative viability (LK-2; first compound 2.53 µM): 0.805
relative viability (LK-2; first compound 8 µM): 0.547
relative viability (LXF-289; first compound 0.08 µM): 0.991
relative viability (LXF-289; first compound 0.8 µM): 0.957
relative viability (LXF-289; first compound 2.53 µM): 1
relative viability (LXF-289; first compound 8 µM): 1.01
relative viability (NCI-H1651; first compound 0.08 µM): 0.955
relative viability (NCI-H1651; first compound 0.8 µM): 1.1
relative viability (NCI-H1651; first compound 2.53 µM): 1.04
relative viability (NCI-H1651; first compound 8 µM): 0.878
relative viability (NCI-H1793; first compound 0.08 µM): 0.736
relative viability (NCI-H1793; first compound 0.8 µM): 1.15
relative viability (NCI-H1793; first compound 2.53 µM): 1.5
relative viability (NCI-H1793; first compound 8 µM): 0.853
relative viability (NCI-H1915; first compound 0.08 µM): 1.17
relative viability (NCI-H1915; first compound 0.8 µM): 1.11
relative viability (NCI-H1915; first compound 2.53 µM): 1.13
relative viability (NCI-H1915; first compound 8 µM): 1.12
relative viability (NCI-H2087; first compound 0.08 µM): 0.998
relative viability (NCI-H2087; first compound 0.8 µM): 0.97
relative viability (NCI-H2087; first compound 2.53 µM): 1.01
relative viability (NCI-H2087; first compound 8 µM): 0.916
relative viability (NCI-H2126; first compound 0.08 µM): 0.714
relative viability (NCI-H2126; first compound 0.8 µM): 0.787
relative viability (NCI-H2126; first compound 2.53 µM): 0.746
relative viability (NCI-H2126; first compound 8 µM): 0.676
relative viability (NCI-H2347; first compound 0.08 µM): 0.968
relative viability (NCI-H2347; first compound 0.8 µM): 1.03
relative viability (NCI-H2347; first compound 2.53 µM): 1.09
relative viability (NCI-H2347; first compound 8 µM): 0.958
relative viability (NCI-H358; first compound 0.08 µM): 0.691
relative viability (NCI-H358; first compound 0.8 µM): 0.908
relative viability (NCI-H358; first compound 2.53 µM): 0.92
relative viability (NCI-H358; first compound 8 µM): 0.842
relative viability (NCI-H441; first compound 0.08 µM): 0.598
relative viability (NCI-H441; first compound 0.8 µM): 0.559
relative viability (NCI-H441; first compound 2.53 µM): 0.539
relative viability (NCI-H441; first compound 8 µM): 0.622
relative viability (NCI-H460; first compound 0.08 µM): 0.808
relative viability (NCI-H460; first compound 0.8 µM): 0.988
relative viability (NCI-H460; first compound 2.53 µM): 1.18
relative viability (NCI-H460; first compound 8 µM): 0.69
relative viability (NCI-H596; first compound 0.08 µM): 1.11
relative viability (NCI-H596; first compound 0.8 µM): 1.14
relative viability (NCI-H596; first compound 2.53 µM): 1.25
relative viability (NCI-H596; first compound 8 µM): 1.05
relative viability (SW 1573; first compound 0.08 µM): 0.842
relative viability (SW 1573; first compound 0.8 µM): 0.924
relative viability (SW 1573; first compound 2.53 µM): 0.75
relative viability (SW 1573; first compound 8 µM): 0.832
